# PMC6364417, “Kinase inhibitor library screening identifies synergistic drug combinations effective in sensitive and resistant melanoma cells” (Journal of Experimental & Clinical Cancer Research : CR, 2019)
# How the values were obtained:
# Test in all cases: Kinase inhibitor library screening, PrestoBlue cell viability, 1 or 10 μM, 72 h
# A375 cells (parental) = conditions: for viability at 1 µM / viability at 10 µM: Homo sapiens, A-375, 72 h; for viability at 1 µM: read-out: cell viability, A375 Parental, 1μΜ; for viability at 10 µM: read-out: cell viability, A375 Parental, 10μΜ
# [1] = tested on: IGR37-XP cells (Vemurafenib-resistant); conditions: for viability at 1 µM / viability at 10 µM: Homo sapiens, IGR-37, 72 h; for viability at 1 µM: read-out: cell viability, IGR37 XP, 1μΜ; for viability at 10 µM: read-out: cell viability, IGR37 XP, 10μΜ
# [2] = tested on: 501Mel-XP cells (Vemurafenib-resistant); conditions: for viability at 1 µM / viability at 10 µM: Homo sapiens; for viability at 1 µM: read-out: cell viability, 501Mel XP, 1μΜ; for viability at 10 µM: read-out: cell viability, 501Mel XP, 10μΜ
# [3] = tested on: 501Mel-GP cells (Dabrafenib-resistant); conditions: for viability at 1 µM / viability at 10 µM: Homo sapiens; for viability at 1 µM: read-out: cell viability, 501Mel GP, 1μΜ; for viability at 10 µM: read-out: cell viability, 501Mel GP, 10μΜ
# [4] = tested on: A375-GP cells (Dabrafenib-resistant); conditions: for viability at 1 µM / viability at 10 µM: Homo sapiens, A-375, 72 h; for viability at 1 µM: read-out: cell viability, A375 GP, 1μΜ; for viability at 10 µM: read-out: cell viability, A375 GP, 10μΜ
# [5] = tested on: IGR37-GP cells (Dabrafenib-resistant); conditions: for viability at 1 µM / viability at 10 µM: Homo sapiens, IGR-37, 72 h; for viability at 1 µM: read-out: cell viability, IGR37 GP, 1μΜ; for viability at 10 µM: read-out: cell viability, IGR37 GP, 10μΜ
# [6] = tested on: A375-XP cells (Vemurafenib-resistant); conditions: for viability at 1 µM / viability at 10 µM: Homo sapiens, A-375, 72 h; for viability at 1 µM: read-out: cell viability, A375 XP, 1μΜ; for viability at 10 µM: read-out: cell viability, A375 XP, 10μΜ
# IGR37 cells (parental) = conditions: for viability at 1 µM / viability at 10 µM: Homo sapiens, IGR-37, 72 h; for viability at 1 µM: read-out: cell viability, IGR37 Parental, 1μΜ; for viability at 10 µM: read-out: cell viability, IGR37 Parental, 10μΜ
# 501Mel cells (parental) = conditions: for viability at 1 µM / viability at 10 µM: Homo sapiens; for viability at 1 µM: read-out: cell viability, 501Mel Parental, 1μΜ; for viability at 10 µM: read-out: cell viability, 501Mel Parental, 10μΜ
# Summary of the method: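 Each compound was applied to parental melanoma cells and to derivatives made resistant to Vemurafenib or Dabrafenib. After treatment, viability was read with PrestoBlue on a plate reader and expressed as % of untreated cells, with each line run at least in duplicate.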
smiles,measurement,setting,value
O=C(NC[C@H](O)CO)c1ccncc1Nc1ccc(I)cc1F [AS703026],viability at 1 µM,A375 cells (parental),18.5%
same,viability at 10 µM,A375 cells (parental),19.6%
same,viability at 1 µM,[1],52.7%
same,viability at 10 µM,[1],18.8%
same,viability at 1 µM,[2]; 72 h,79.8%
same,viability at 10 µM,[2]; 72 h,56%
same,viability at 1 µM,[3]; 72 h,95.8%
same,viability at 10 µM,[3]; 72 h,78.7%
same,viability at 1 µM,[4],18.8%
same,viability at 10 µM,[4],15.8%
same,viability at 1 µM,[5],77%
same,viability at 10 µM,[5],59.4%
same,viability at 1 µM,[6],15.5%
same,viability at 10 µM,[6],9.6%
same,viability at 1 µM,IGR37 cells (parental),33.3%
same,viability at 10 µM,IGR37 cells (parental),35.4%
same,viability at 1 µM,501Mel cells (parental); 72 h,50.1%
same,viability at 10 µM,501Mel cells (parental); 72 h,57.6%
O=C(NOCC(O)CO)c1cc(Br)c(F)c(F)c1Nc1ccc(I)cc1F (stereo not drawn) [PD318088],"cell viability, A375 Parental, 1μΜ","A375 cells (parental); A375 Parental, 1μΜ, 72 h, in %",19.2
same,"cell viability, A375 Parental, 10μΜ","A375 cells (parental); A375 Parental, 10μΜ, 72 h, in %",16.4
same,"cell viability, IGR37 XP, 10μΜ","[1]; IGR37 XP, 10μΜ, 72 h",22.8%
same,"cell viability, IGR37 XP, 1μΜ","[1]; IGR37 XP, 1μΜ, 72 h, in %",63.3
same,"cell viability, 501Mel XP, 1μΜ","[2]; 501Mel XP, 1μΜ, 72 h, in %",84.8
same,"cell viability, 501Mel XP, 10μΜ","[2]; 501Mel XP, 10μΜ, 72 h, in %",57.7
same,"cell viability, 501Mel GP, 1μΜ","[3]; 501Mel GP, 1μΜ, 72 h, in %",99.4
same,"cell viability, 501Mel GP, 10μΜ","[3]; 501Mel GP, 10μΜ, 72 h, in %",79.2
same,"cell viability, A375 GP, 1μΜ","[4]; A375 GP, 1μΜ, 72 h, in %",31.6
same,"cell viability, A375 GP, 10μΜ","[4]; A375 GP, 10μΜ, 72 h, in %",15.6
same,"cell viability, IGR37 GP, 10μΜ","[5]; IGR37 GP, 10μΜ, 72 h",66.4%
same,"cell viability, IGR37 GP, 1μΜ","[5]; IGR37 GP, 1μΜ, 72 h, in %",76.0
same,"cell viability, A375 XP, 1μΜ","[6]; A375 XP, 1μΜ, 72 h, in %",36.7
same,"cell viability, A375 XP, 10μΜ","[6]; A375 XP, 10μΜ, 72 h, in %",11.2
same,"cell viability, IGR37 Parental, 1μΜ","IGR37 cells (parental); IGR37 Parental, 1μΜ, 72 h, in %",37.8
same,"cell viability, IGR37 Parental, 10μΜ","IGR37 cells (parental); IGR37 Parental, 10μΜ, 72 h, in %",36.8
same,"cell viability, 501Mel Parental, 1μΜ","501Mel cells (parental); 501Mel Parental, 1μΜ, 72 h, in %",54.5
same,"cell viability, 501Mel Parental, 10μΜ","501Mel cells (parental); 501Mel Parental, 10μΜ, 72 h, in %",54.4
O=C1Nc2ccccc2/C1=C1/Nc2ccccc2C1=O [Indirubin],viability at 1 µM,A375 cells (parental),101%
same,viability at 10 µM,A375 cells (parental),95.1%
same,viability at 1 µM,[1],95.7%
same,viability at 10 µM,[1],75.6%
same,viability at 1 µM,[2]; 72 h,88.9%
same,viability at 10 µM,[2]; 72 h,70.4%
same,viability at 1 µM,[3]; 72 h,102%
same,viability at 10 µM,[3]; 72 h,91.5%
same,viability at 1 µM,[4],95.3%
same,viability at 10 µM,[4],96.4%
same,viability at 1 µM,[5],94.7%
same,viability at 10 µM,[5],91.3%
same,viability at 1 µM,[6],102%
same,viability at 10 µM,[6],103%
same,viability at 1 µM,IGR37 cells (parental),100%
same,viability at 10 µM,IGR37 cells (parental),105%
same,viability at 1 µM,501Mel cells (parental); 72 h,104%
same,viability at 10 µM,501Mel cells (parental); 72 h,101%
COc1cc2c(Oc3ccc4[nH]c(C)cc4c3F)ncnc2cc1OCCCN1CCCC1 [Cediranib (AZD2171)],cell viability (kinase inhibitor library screening),"A375 cells (parental); A375 Parental, 1μΜ, in %",105.9
same,cell viability (kinase inhibitor library screening),"A375 cells (parental); A375 Parental, 10μΜ, in %",27.2
same,cell viability (kinase inhibitor library screening),"[1]; IGR37 XP, 1μΜ, in %",97.7
same,cell viability (kinase inhibitor library screening),"[1]; IGR37 XP, 10μΜ, in %",1.6
same,cell viability (kinase inhibitor library screening),"[2]; 501Mel XP, 1μΜ, in %",89.8
same,cell viability (kinase inhibitor library screening),"[2]; 501Mel XP, 10μΜ, in %",-0.129
same,cell viability (kinase inhibitor library screening),"[3]; 501Mel GP, 1μΜ, in %",105.5
same,cell viability (kinase inhibitor library screening),"[3]; 501Mel GP, 10μΜ, in %",0.9
same,cell viability (kinase inhibitor library screening),"[4]; A375 GP, 1μΜ, in %",97.5
same,cell viability (kinase inhibitor library screening),"[4]; A375 GP, 10μΜ, in %",15.1
same,cell viability (kinase inhibitor library screening),"[5]; IGR37 GP, 1μΜ, in %",99.5
same,cell viability (kinase inhibitor library screening),"[5]; IGR37 GP, 10μΜ, in %",4.2
same,cell viability (kinase inhibitor library screening),"[6]; A375 XP, 1μΜ, in %",104.3
same,cell viability (kinase inhibitor library screening),"[6]; A375 XP, 10μΜ, in %",4.2
same,cell viability (kinase inhibitor library screening),"IGR37 cells (parental); IGR37 Parental, 1μΜ, in %",94.9
same,cell viability (kinase inhibitor library screening),"IGR37 cells (parental); IGR37 Parental, 10μΜ, in %",1.6
same,cell viability (kinase inhibitor library screening),"501Mel cells (parental); 501Mel Parental, 10μΜ, in %",1.2
Cc1ccc(Nc2nccc(N(C)c3ccc4c(C)n(C)nc4c3)n2)cc1S(N)(=O)=O.Cl [Pazopanib HCl],cell viability (kinase inhibitor library screening),"A375 cells (parental); A375 Parental, 10μΜ, in %",71.9
same,cell viability (kinase inhibitor library screening),"[1]; IGR37 XP, 10μΜ, in %",65.8
same,cell viability (kinase inhibitor library screening),"[2]; 501Mel XP, 1μΜ, in %",88.8
same,cell viability (kinase inhibitor library screening),"[2]; 501Mel XP, 10μΜ, in %",48.8
same,cell viability (kinase inhibitor library screening),"[3]; 501Mel GP, 1μΜ, in %",95.6
same,cell viability (kinase inhibitor library screening),"[3]; 501Mel GP, 10μΜ, in %",65.3
same,cell viability (kinase inhibitor library screening),"[4]; A375 GP, 1μΜ, in %",98.9
same,cell viability (kinase inhibitor library screening),"[4]; A375 GP, 10μΜ, in %",71.0
same,cell viability (kinase inhibitor library screening),"[5]; IGR37 GP, 1μΜ, in %",83.2
same,cell viability (kinase inhibitor library screening),"[5]; IGR37 GP, 10μΜ, in %",61.1
same,cell viability (kinase inhibitor library screening),"[6]; A375 XP, 10μΜ, in %",75.2
same,cell viability (kinase inhibitor library screening),"IGR37 cells (parental); IGR37 Parental, 1μΜ, in %",96.1
same,cell viability (kinase inhibitor library screening),"IGR37 cells (parental); IGR37 Parental, 10μΜ, in %",84.7
same,cell viability (kinase inhibitor library screening),"501Mel cells (parental); 501Mel Parental, 1μΜ, in %",99.1
same,cell viability (kinase inhibitor library screening),"501Mel cells (parental); 501Mel Parental, 10μΜ, in %",86.1
C[C@H](NC(=O)/C(C#N)=C/c1cccc(Br)n1)c1ccccc1 [WP1066],viability at 1 µM,A375 cells (parental),106%
same,viability at 10 µM,A375 cells (parental),5.4%
same,viability at 1 µM,[1],92.4%
same,viability at 10 µM,[1],3.2%
same,viability at 1 µM,[2]; 72 h,91.3%
same,viability at 10 µM,[2]; 72 h,-0.0613%
same,viability at 1 µM,[3]; 72 h,102%
same,viability at 10 µM,[3]; 72 h,1.2%
same,viability at 1 µM,[4],92.5%
same,viability at 10 µM,[4],4.5%
same,viability at 1 µM,[5],92.6%
same,viability at 10 µM,[5],5.1%
same,viability at 1 µM,[6],103%
same,viability at 10 µM,[6],6.7%
same,viability at 1 µM,IGR37 cells (parental),110%
same,viability at 10 µM,IGR37 cells (parental),0.9%
same,viability at 1 µM,501Mel cells (parental); 72 h,96.9%
same,viability at 10 µM,501Mel cells (parental); 72 h,0.369%
Cl.Cl.Clc1ccc(Nc2nnc(Cc3ccncc3)c3ccccc23)cc1 [Vatalanib dihydrochloride (PTK787)],cell viability (kinase inhibitor library screening),"A375 cells (parental); A375 Parental, 1μΜ, in %",105.1
same,cell viability (kinase inhibitor library screening),"A375 cells (parental); A375 Parental, 10μΜ, in %",92.8
same,cell viability (kinase inhibitor library screening),"[1]; IGR37 XP, 10μΜ, in %",58.7
same,cell viability (kinase inhibitor library screening),"[2]; 501Mel XP, 1μΜ, in %",94.6
same,cell viability (kinase inhibitor library screening),"[2]; 501Mel XP, 10μΜ, in %",73.0
same,cell viability (kinase inhibitor library screening),"[3]; 501Mel GP, 1μΜ, in %",106.0
same,cell viability (kinase inhibitor library screening),"[3]; 501Mel GP, 10μΜ, in %",81.7
same,cell viability (kinase inhibitor library screening),"[4]; A375 GP, 1μΜ, in %",96.3
same,cell viability (kinase inhibitor library screening),"[4]; A375 GP, 10μΜ, in %",92.3
same,cell viability (kinase inhibitor library screening),"[5]; IGR37 GP, 1μΜ, in %",95.0
same,cell viability (kinase inhibitor library screening),"[5]; IGR37 GP, 10μΜ, in %",83.6
same,cell viability (kinase inhibitor library screening),"[6]; A375 XP, 10μΜ, in %",99.5
same,cell viability (kinase inhibitor library screening),"IGR37 cells (parental); IGR37 Parental, 1μΜ, in %",118.3
same,cell viability (kinase inhibitor library screening),"IGR37 cells (parental); IGR37 Parental, 10μΜ, in %",92.4
same,cell viability (kinase inhibitor library screening),"501Mel cells (parental); 501Mel Parental, 1μΜ, in %",98.6
same,cell viability (kinase inhibitor library screening),"501Mel cells (parental); 501Mel Parental, 10μΜ, in %",93.0
